# Read-outs that look alike come from different tables or passages of the source.
# Test system: Raf-1^gof intestinal tumors
# Settings: for Log2 (fold) of luciferase activity relative to DMSO controls / Fold (luciferase activity relative to DMSO controls): ICCB compounds fed in vials to flies with one-day old Raf-1^gof tumors
# [1] = screen of 480 ICCB compounds in vials, compounds fed to flies with one-day old Raf-1^gof tumors, assessed three days later, esg-Gal4 luciferase
# [2] = screen of 480 ICCB compounds in vials, compounds fed to flies with one-day old Raf-1^gof tumors, assessed three days later, esg-Gal4 luciferase, averaged from multiple wells
# [3] = assessed three days later, averaged from multiple wells
# Further: test concentration or dose not given here.
SMILES,"Log2 (fold) (luciferase activity, log2 of the fold difference relative to DMSO controls) [1]","Fold (luciferase activity, fold difference relative to DMSO controls) [2]",Log2 (fold) of luciferase activity relative to DMSO controls (assessed three days later),Fold (luciferase activity relative to DMSO controls) [3],other results
CC(=O)N[C@@H](CSC/C=C(\C)CC/C=C(\C)CCC=C(C)C)C(=O)O,−0.664,0.631,–,–,–
Nc1ccc2c3c(cccc13)C(=O)NC2=O,−0.433,0.741,–,–,–
NC(=O)c1cccc(N)c1,–,–,−0.160,0.895 fold,–
CCOc1ccc(-c2nc3ccc(-c4nc5ccc(N6CCN(C)CC6)cc5[nH]4)cc3[nH]2)cc1,−0.592,0.663,–,–,–
O=C(O)c1ccccc1Nc1ccccc1,−0.355,0.782,–,–,–
NC(=Nc1ccccc1)NC(=O)c1nc(Cl)c(N)nc1N,–,–,0.088,1.063 fold,–
CC(N/C(=N\C#N)Nc1ccncc1)C(C)(C)C (stereo not shown),−0.591,0.664,–,–,–
COc1ccc(CCN(C)CCCC(C#N)(c2ccc(OC)c(OC)c2)C(C)C)cc1OC (stereo not shown),–,–,–,–,"Fold (luciferase activity, fold difference relative to DMSO controls) (in vivo): 0.838; Log2 (fold) (luciferase activity, log2 of the fold difference relative to DMSO controls) (in vivo): −0.255"
"CCCCC(C)(O)C/C=C/[C@H]1[C@H](O)CC(=O)[C@@H]1CCCCCCC(=O)O (mixture of isomers) [MISOPROSTOL, FREE ACID]",–,–,−0.137,0.909 fold,–
CCCCCCCCCCCCCCC[C@H](O)[C@@H](N)CO (racemic) [DL-DIHYDROSPHINGOSINE],–,–,0.076,1.054 fold,–
CCCCCCCCCC(=O)N[C@H](CN1CCOCC1)[C@H](O)c1ccccc1 (racemic) [DL-PDMP],–,–,0.078,1.056 fold,–
CCCCCCCCCCCCCCCC(=O)N[C@H](CN1CCOCC1)[C@H](O)c1ccccc1 (racemic) [DL-PPMP],–,–,0.108,1.078 fold,–
O=C(O)CCC/C=C\C[C@@H]1[C@@H](/C=C/[C@@H](O)COc2cccc(C(F)(F)F)c2)[C@H](O)C[C@@H]1O (racemic) [FLUPROSTENOL],–,–,0.058,1.041 fold,–
COC1=CC(=O)O[C@@H](/C=C/c2ccccc2)C1 (racemic) [Kavain (+/−)],−0.357,0.781,–,–,–
CN(C)C[C@H](O)Cn1c2ccc(Br)cc2c2cc(Br)ccc21 (racemic) [Wiskostatin],−0.646,0.639,–,–,–
Clc1ccc(C2CC3CCC2N3)cn1 (racemic) [epibatidine (+/−)],−0.457,0.729,–,–,–
"CCCCCCCCCC(=O)OCC(CO)OC(=O)CCCCCCCCC (stereo not shown) [1,2-DIDECANOYL-GLYCEROL (10:0)]",–,–,0.310,1.240 fold,–
"CCCCCCCC(=O)OC[C@H](CO)OC(=O)CCCCCCC [1,2-DIOCTANOYL-SN-GLYCEROL]",–,–,−0.080,0.946 fold,–
"CCCCCCCC/C=C\CCCCCCCC(=O)OCC(CO)OC(=O)CCCCCCC/C=C\CCCCCCCC (stereo not shown) [1,2-DIOLEOYL-GLYCEROL (18:1)]",–,–,0.443,1.359 fold,–
"C=C1/C(=C\C=C2/CCC[C@]3(C)[C@@H]([C@H](C)CCCC(C)(C)O)CC[C@@H]23)C[C@@H](O)C[C@@H]1O [1,25-DIHYDROXYVITAMIN D3]",–,–,0.677,1.599 fold,–

# Reference: US20130096067A1, “DROSOPHILA TUMOR STEM CELL MODEL AND USES THEREOF” (priority 2011, published 2013)
